# According to article PMC3906128 (Addiction biology, 2011):
# Where a name gives a salt, the structure may show the parent alone. Read-outs that look alike come from different tables or passages of the source.
# Legend:
# DOP-R2 = DOP-R2 (Rattus norvegicus, UniProt P33533); test: Deltorphin II-stimulated [35S]GTPγS binding in rat midbrain membranes; type: biochemical; details: Mean (± SEM) EC50 for Midbrain Opioid Stimulation, ethanol-trained rats
# DOP-R1 [1] = molecular target: T1, DOP-R1 (Rattus norvegicus, UniProt P33533); test: Inhibition of TAN67-; type: biochemical
# T1 sequence (P33533 whole entry): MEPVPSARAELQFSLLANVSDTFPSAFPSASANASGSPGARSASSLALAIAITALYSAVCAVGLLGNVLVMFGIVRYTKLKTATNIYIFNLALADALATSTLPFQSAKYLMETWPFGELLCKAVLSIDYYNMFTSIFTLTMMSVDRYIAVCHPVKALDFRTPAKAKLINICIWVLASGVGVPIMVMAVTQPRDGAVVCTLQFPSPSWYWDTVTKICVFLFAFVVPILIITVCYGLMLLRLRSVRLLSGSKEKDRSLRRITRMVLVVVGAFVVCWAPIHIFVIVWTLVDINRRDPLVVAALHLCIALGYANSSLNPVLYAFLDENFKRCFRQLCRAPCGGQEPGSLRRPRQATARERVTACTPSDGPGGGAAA
# DOP-R [2] = details: in vitro, ref Wells et al., 2001, Xu et al.; cited from earlier work
# Long-Evans rats = test: Yohimbine stress-induced reinstatement of 10% ethanol seeking
# DOP-R [3] = details: brain membranes of high-ethanol consuming rats; ref Nielsen et al., 2008; cited from earlier work
# rats [4] = details: 5 mg/kg I.P., ref Nielsen et al., 2008; cited from earlier work
# MOP-R [5] = details: ref Ananthan et al., 1999, cited from earlier work
# rats [6] = details: elevated plus maze test in rats; ref Nielsen et al., 2008; cited from earlier work
# KOP-R = details: in vitro, ref Wells et al., 2001, Xu et al.; cited from earlier work
# MOP-R [7] = details: in vitro, ref Wells et al., 2001, Xu et al.; cited from earlier work
# DOP-R [8] = details: ref Ananthan et al., 1999, cited from earlier work
# corticosterone (CORT) = test: Plasma corticosterone measurement; type: in vivo, rat; details: SoRI-9409 5 mg/kg I.P. prior to yohimbine 2 mg/kg I.P.; P > 0.05
# DOP-R1 [9] = molecular target: T1, DOP-R1; test: TAN67-stimulated [35S]GTPγS binding in rat brain membranes; type: biochemical; details: for EC50: ethanol-trained rats
# [10] = read-out: IC50, inhibition of TAN67-stimulated (10 μmol/L) [35S]GTPγS-binding, midbrain membranes, ethanol-trained rats given SoRI-9409-vehicle prior to yohimbine (2 mg/kg I.P.)
# Chain of DOP-R2 (P33533 whole entry): as above
compound,measurement,setting,value
"CC(C)[C@H](NC(=O)[C@H](CCC(=O)O)NC(=O)[C@H](Cc1ccccc1)NC(=O)[C@@H](C)NC(=O)[C@@H](N)Cc1ccc(O)cc1)C(=O)N[C@H](C(=O)NCC(N)=O)C(C)C [Deltorphin II, [D-Ala^2]-Deltorphin II]",EC50,DOP-R2; SoRI-9409 (5 mg/kg I.P.)/Yohimbine (2 mg/kg I.P.),22 ± 4 µM
same,EC50,DOP-R2; SoRI-9409 (5 mg/kg I.P.)/Yohimbine-vehicle,> 100 µM
same,EC50,DOP-R2; SoRI-9409-vehicle/Yohimbine (2 mg/kg I.P.),27 ± 2.9 µM
same,EC50,DOP-R2; SoRI-9409-vehicle/Yohimbine-vehicle,> 100 µM
"Oc1ccc2c3c1O[C@H]1c4ncc(-c5ccc(Cl)cc5)cc4C[C@@]4(O)[C@@H](C2)N(CC2CC2)CC[C@]314 [SoRI-9409, 5′-(4-Chlorophenyl)-17-(cyclopropylmethyl)-6,7-didehydro-3,14-dihydroxy-4,5-alpha-epoxypyrido[2′,3′:6,7] morphinan]",IC50,DOP-R1 [1]; [10],0.022 ± 0.0035 µM
same,agonist activity at DOP-R,DOP-R [2],no agonist activity
same,antagonist activity at the DOP-R,DOP-R [2],potent antagonist activity
same,Inactive lever presses,"Long-Evans rats; SoRI-9409 1 mg/kg, Vehicle group (yohimbine-vehicle)",0.8 ± 0.4
same,Inactive lever presses,"Long-Evans rats; SoRI-9409 1 mg/kg, Yohimbine group (2 mg/kg I.P.)",1.7 ± 0.5
same,Inactive lever presses,"Long-Evans rats; SoRI-9409 2.5 mg/kg, Vehicle group (yohimbine-vehicle)",0.3 ± 0.3
same,Inactive lever presses,"Long-Evans rats; SoRI-9409 2.5 mg/kg, Yohimbine group (2 mg/kg I.P.)",1.0 ± 0.4
same,Inactive lever presses,"Long-Evans rats; SoRI-9409 5 mg/kg, Vehicle group (yohimbine-vehicle)",0.2 ± 0.1
same,Inactive lever presses,"Long-Evans rats; SoRI-9409 5 mg/kg, Yohimbine group (2 mg/kg I.P.)",0.6 ± 0.4
same,effect on responding in rats which did not receive yohimbine,"Long-Evans rats; SoRI-9409 1-5 mg/kg I.P., yohimbine-vehicle only, P > 0.05",did not affect responding
same,inhibition of DOP-R-mediated [35S]GTPγS binding,DOP-R [3],potently inhibits
same,effect on ethanol consumption,rats [4],selective and long-lasting reductions in ethanol consumption
same,reduced binding affinity for the MOP-R in comparison to naltrexone,MOP-R [5]; compared to naltrexone,approximately 20 fold
same,Ki,"MOP-R [5]; read-out: Ki, binding affinity for the MOP-R",0.051 ± 0.008 µM
same,anxiogenic or anxiolytic effects,rats [6],does not produce anxiogenic or anxiolytic effects
same,agonist activity at KOP-R,KOP-R,no agonist activity
same,antagonist activity at the KOP-R,KOP-R,weak antagonist activity
same,agonist activity at MOP-R,MOP-R [7],no agonist activity
same,antagonist activity at the MOP-R,MOP-R [7],weak antagonist activity
same,higher binding affinity at the DOP-R in comparison to naltrexone,DOP-R [8]; compared to naltrexone,approximately 20 fold
same,Ki,"DOP-R [8]; read-out: Ki, binding affinity at the DOP-R",0.0022 ± 0.0002 µM
same,Plasma CORT levels of SoRI-9409/yohimbine treated rats vs SoRI-9409-vehicle/yohimbine treated rats,corticosterone (CORT),not different
"Oc1ccc2c3c1O[C@H]1c4[nH]c5ccccc5c4C[C@@]4(O)[C@@H](C2)N(CC2CC2)CC[C@]314 [naltrindole, naltrindole hydrochloride]",IC50,DOP-R1 [1],0.046 ± 0.0038 µM
"COC(=O)[C@@H]1[C@H]2C[C@H]3c4[nH]c5ccccc5c4CCN3C[C@@H]2CC[C@@H]1O [Yohimbine, reference compound]",active lever presses (30 min),"Long-Evans rats; SoRI-9409-vehicle prior to yohimbine 2 mg/kg I.P., ethanol-extinguished rats, vehicle/vehicle 10.9 ± 1.8",48.0 ± 7.0 presses
same,Inactive lever presses,"Long-Evans rats; SoRI-9409-vehicle, Yohimbine group (2 mg/kg I.P.)",2.1 ± 0.7
"Br.Br.CN1CC[C@]2(c3cccc(O)c3)Cc3nc4ccccc4cc3C[C@H]2C1 [TAN67, SB 205607 dihydrobromide]",higher TAN67-mediated DOP-R1 activity in yohimbine-treated rats compared to vehicle-treated rats,"DOP-R1 [9]; midbrain membranes, from Table 2 EC50 values",> 700 fold
same,EC50,"DOP-R1 [9]; read-out: Mean (± SEM) EC50 for Midbrain Opioid Stimulation, midbrain membranes, SoRI-9409 (5 mg/kg I.P.)/Yohimbine (2 mg/kg I.P.)",5.2 ± 0.3 µM
same,EC50,"DOP-R1 [9]; read-out: Mean (± SEM) EC50 for Midbrain Opioid Stimulation, midbrain membranes, SoRI-9409 (5 mg/kg I.P.)/Yohimbine-vehicle",> 100 µM
same,EC50,"DOP-R1 [9]; read-out: Mean (± SEM) EC50 for Midbrain Opioid Stimulation, midbrain membranes, SoRI-9409-vehicle/Yohimbine (2 mg/kg I.P.)",0.14 ± 0.04 µM
same,EC50,"DOP-R1 [9]; read-out: Mean (± SEM) EC50 for Midbrain Opioid Stimulation, midbrain membranes, SoRI-9409-vehicle/Yohimbine-vehicle",> 100 µM
same,EC50,"DOP-R1 [9]; read-out: Mean (± SEM) EC50 for TAN67 Stimulation, Striatum, striatal membranes, SoRI-9409 (5 mg/kg I.P.)/Yohimbine (2 mg/kg I.P.)",> 100 µM
same,EC50,"DOP-R1 [9]; read-out: Mean (± SEM) EC50 for TAN67 Stimulation, Striatum, striatal membranes, SoRI-9409 (5 mg/kg I.P.)/Yohimbine-vehicle",> 100 µM
same,EC50,"DOP-R1 [9]; read-out: Mean (± SEM) EC50 for TAN67 Stimulation, Striatum, striatal membranes, SoRI-9409-vehicle/Yohimbine (2 mg/kg I.P.)",> 100 µM
same,EC50,"DOP-R1 [9]; read-out: Mean (± SEM) EC50 for TAN67 Stimulation, Striatum, striatal membranes, SoRI-9409-vehicle/Yohimbine-vehicle",> 100 µM
"O=C1/C(=C/c2ccccc2)C[C@@]2(O)[C@H]3Cc4ccc(O)c5c4[C@@]2(CCN3CC2CC2)[C@H]1O5 [BNTX, 7-benzylidenenaltrexone maleate salt hydrate]",IC50,DOP-R1 [1]; [10],0.037 ± 0.0048 µM
